Test results taken from patent US5378700A, “Fused pyrimidine derivative, process for preparation of same and pharmaceutical preparation comprising same as active ingredient” (Teijin Limited, priority 1989, dated 1995).

Legend:
Type in all cases: in vivo, Male Wistar strain rats
[1] = tested on: hypoxemia model animals (carbon powder); assay: Effect on partial pressure of gases in arterial blood, intravenous, Method A (carbon powder induced hypoxemia); settings: intravenous 0.1 mg/kg/min, 10 min, after minus before administration
Procedure: (§1) Example 75: Effect on Partial Pressure Value of Gases in Arterial Blood (Intravenous Injection System)
Male Wistar strain rats (body weight about 300 g) were anesthetized intra-peritonealy with urethane, and a cannula was inserted into the respiratory tract and the femoral artery, respectively. A suspension (30-100 μm, 10 mg/ml) of carbon powder in a corn oil was intratrachealy injected to induce a hypoxemia state (PaO2 : 50-60 mmHg). A compound in the present invention was continuously injected into these hypoxemia model animals intravenously (0.1 mg/kg/min, 10 min), and then a partial pressure value of gases (PaO2, PaCO2) in arterial blood was immediately determined.

[2] = tested on: hypoxemia model animals (acetic acid); assay: Effect on partial pressure of gases in arterial blood, intravenous, Method B (acetic acid induced hypoxemia); settings: 2.0% acetic acid, intravenous 0.1 mg/kg/min, 10 min, after minus before administration
Procedure: as §1
Male Wistar strain rats (body weight about 300 g) were anesthetized with halothane inhalant, and then 2.0% acetic acid was intratrachealy injected at 0.6 ml/kg to induce a respiratory insufficiency. The animals were intraperitonealy anesthetized with urethane-α-chloralose, and a cannula was inserted into the femoral artery. After the hypoxemic state (PaO2 : 60-70 mmHg) was observed a compound in accordance with the present invention (test substance) was continuously injected into these hypoxemia model animals intravenously (0.1 mg/kg/min, 10 min), and then a partial pressure value of gases (PaO2, PaCO2) in arterial blood was immediately determined.

[3] = tested on: hypoxemia state (acetic acid); assay: Effect on partial pressure of gases in arterial blood, oral administration (acetic acid induced hypoxemia); settings: 2.0% acetic acid, 60 min after administration
Procedure: Example 76: Effect on Partial Pressure Value of Gases in Arterial Blood (Oral Administration System)
Male Wistar strain rats (body weight about 250 g) fasted overnight were anesthetized with halothane inhalant, and then a cannula was inserted into the femoral artery. After the animals recovered from the anesthesia, they were again anesthetized with halothane inhalant, and then 2.0% acetic acid was intratrachealy injected at 0.8 ml/kg to induce a hypoxemia state. After the hypoxemic state was observed over about 60 min., a compound in accordance with the present invention (test substance) was orally administered to the animals. On 60 min. after the administration, the partial pressure value of gases (PaO2, PaCO2) in arterial blood was determined.

SMILES | PaCO2 Decreasing Activity ΔPaCO2 [1] | PaO2 Increasing Activity ΔPaO2 [1] | PaCO2 Decreasing Activity ΔPaCO2 [2] | PaO2 Increasing Activity ΔPaO2 [2] | PaCO2 Decreasing Activity ΔPaCO2 [3] | PaO2 Increasing Activity ΔPaO2 [3]
C=C(C)CNc1nc2c(c(N3CCN(C(c4ccc(F)cc4)c4ccc(F)cc4)CC3)n1)CCCN2 [Compound 112] | -2.0 mmHg | +4.6 mmHg | – | – | – | –
C=CCNc1nc(NCC=C)c2c(n1)N(C)CCC2 [Compound 121] | – | – | -1.2 mmHg | +15.9 mmHg | + (-3--6 mmHg) | ++ (+6-+9 mmHg)
C=CCNc1nc2c(c(N3CCCC3)n1)CCCN2CC=C [Compound 143] | – | – | -0.7 mmHg | +8.1 mmHg | ± (0--3 mmHg) | + (+3-+6 mmHg)
C=CCNc1nc2c(c(N3CCCCC3)n1)CCCN2CC=C [Compound 145] | – | – | -0.8 mmHg | +11.2 mmHg | ± (0--3 mmHg) | + (+3-+6 mmHg)
C=CCNc1nc2c(c(N3CCC(c4ccccc4)CC3)n1)CCCN2CC=C [Compound 146] | – | – | +2.5 mmHg | +6.6 mmHg | – | –
C=CCNc1nc2c(c(N3CCCCCC3)n1)CCCN2CC=C [Compound 153] | – | – | -0.9 mmHg | +10.0 mmHg | – | –
C=CCNc1nc2c(c(N3CCN(C)CC3)n1)CCCN2CC=C [Compound 155] | – | – | +2.6 mmHg | +6.6 mmHg | + (-3--6 mmHg) | ++ (+6-+9 mmHg)
C=CCNc1nc2c(c(N3CCN(C(c4ccc(F)cc4)c4ccc(F)cc4)CC3)n1)CCCN2CC=C [Compound 159] | +0.4 mmHg | +4.8 mmHg | – | – | – | –
C=CCNc1nc(NCC=C)c2c(n1)N(CC=C)CCC2 [Compound 168] | – | – | -12.2 mmHg | +14.4 mmHg | – | –
C=CCNc1nc(NCCc2ccccc2)c2c(n1)N(CC=C)CCC2 [Compound 171] | – | – | -13.4 mmHg | +17.4 mmHg | ± (0--3 mmHg) | + (+3-+6 mmHg)
C=CCNc1nc(N(C)C)c2c(n1)N(CC=C)CCC2 [Compound 184] | – | – | -3.2 mmHg | +10.4 mmHg | – | –
C=CCNc1nc(N(C)Cc2ccccc2)c2c(n1)N(CC=C)CCC2 [Compound 189] | – | – | -7.6 mmHg | +16.0 mmHg | – | –
C=CCNc1nc(SC(C)c2ccccc2)c2c(n1)N(CC=C)CCC2 (stereo not drawn) [Compound 203] | – | – | -2.1 mmHg | +9.5 mmHg | – | –
C=CCNc1nc(SCCc2ccccc2)c2c(n1)N(CC=C)CCC2 [Compound 204] | – | – | +2.2 mmHg | +15.0 mmHg | – | –
C=CCNc1nc2c(c(N3CCOCC3)n1)CCCN2CC=C [Compound 209] | – | – | -2.4 mmHg | +7.6 mmHg | + (-3--6 mmHg) | + (+3-+6 mmHg)
C=CCNc1nc(N2CC=CCC2)c2c(n1)N(CC=C)CCC2 [Compound 213] | – | – | -2.9 mmHg | +10.3 mmHg | – | –
C=CCNc1nc2c(c(N3CCc4ccccc4C3)n1)CCCN2CC=C [Compound 214] | – | – | +2.2 mmHg | +9.8 mmHg | – | –
C=CCNc1nc(NCC=C)c2c(n1)N(Cc1ccccc1)CCC2 [Compound 233] | – | – | -4.0 mmHg | +8.6 mmHg | – | –
